Values joined by “and” are separate entries in the source; they are usually repeats but may differ in a detail not shown here. Equal values may be shown once. Square brackets hold non-standard residues; d marks the D form. * marks the point of attachment. Guanidyl = -C(=N+Me2)NMe2 on the N-terminal amine (tetramethylguanidyl cap), CN(C)C(=[N+](C)C)*; NMeV = CN[C@H](C(=O)O)C(C)C
How the values were obtained:
[1] = test system: bumblebees (Bombus terrestris); experiment: Bumblebee acute oral toxicity test; type: in vivo; settings: for lethal effect on bumblebees: 1×10^−5 M in 50% sucrose, oral; for safety towards B. terrestris in the bumblebee oral toxicity assay: in vivo
Description: Oral toxicity against bumblebees (Bombus terrestris) was determined as previously described:
OECD (2017), Test No. 247: Bumblebee, Acute Oral Toxicity Test, OECD Guidelines for the Testing of Chemicals, Section 2, OECD Publishing, Paris, https://doi.org/10.1787/9789264284128-en.
Example data are provided for peptides, AH56, AH257, AH259 in Tables 4, 5 below. […]
Data were acquired for: feeding behaviour—weight of liquid consumed pre- and post-treatment; lethality (days).
There was no negative impact on feeding behaviour from capa peptides. Acute bumblebee toxicity was also assessed for other peptide candidates including: AH270, PEG270. Overall, capa peptides are bee safe.

CapaR = target: T1, CapaR (Drosophila melanogaster, UniProt Q8ITC7); experiment: Measurement of intracellular Ca2+ in S2 cells transfected with CapaR (agonist response); type: cell-based; settings: 10^−7 M; activity normalised to that of native Capa2 (designated 100%)
T1 construct: transiently transfected with the apoaequorin ORF; expressed in transfected cells; host or cells: Drosophila melanogaster S2 cells, transient transfection, expression induced with CuSO4
T1 sequence (Q8ITC7 1-477): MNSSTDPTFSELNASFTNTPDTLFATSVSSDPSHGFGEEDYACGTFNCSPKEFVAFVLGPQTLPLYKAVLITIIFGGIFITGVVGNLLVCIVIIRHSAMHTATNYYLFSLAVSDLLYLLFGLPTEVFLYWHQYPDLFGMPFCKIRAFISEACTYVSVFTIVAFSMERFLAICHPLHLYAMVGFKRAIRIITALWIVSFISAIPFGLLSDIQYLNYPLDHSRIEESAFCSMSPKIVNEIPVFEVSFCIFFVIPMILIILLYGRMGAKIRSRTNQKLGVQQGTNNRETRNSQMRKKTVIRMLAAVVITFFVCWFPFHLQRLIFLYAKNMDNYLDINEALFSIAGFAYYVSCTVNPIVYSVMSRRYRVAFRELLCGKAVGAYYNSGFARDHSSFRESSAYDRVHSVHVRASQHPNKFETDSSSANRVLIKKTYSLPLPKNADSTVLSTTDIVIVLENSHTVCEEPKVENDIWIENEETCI
Description: Drosophila melanogaster S2 cells, cultured under standard conditions (1) were transiently transfected with the apoaequorin ORF (Radford J C, Davies S A, Dow J A. Systematic G-protein-coupled receptor analysis in Drosophila melanogaster identifies a leucokinin receptor with novel roles. J Biol Chem. 2002; 277:38810-38817) and a receptor ORF construct, and expression induced using CuSO4. Transfected S2 cells were harvested and incubated with 2.5 μM coelenterazine in the dark at RT for 1-2 h as described (ibid). 25,000 cells were then placed in 135 μl Schneider's medium supplemented with 10% FCS in a well of a white polystyrene 96-well plate (Berthold Technologies). Bioluminescence recordings were carried out using a Mithras LB940 automated 96-well plate reader (Berthold Technologies) and MikroWin software. 15 μl of each of different peptides were applied to final concentrations as required.
Peptides were tested at 10^−7M.
At the end of each recording samples were disrupted by the addition of 100 μl lysis solution, and the [Ca^2+] concentrations calculated as previously described (Rosay P, Davies S A, Yu Y, Sozen A, Kaiser K, et al. Cell-type specific calcium signalling in a Drosophila epithelium. J Cell Sci. 1997; 110:1683-1692).
For the Capa1 and Capa2 peptides, the relevant native control peptide (D. melanogaster Capa1 or Capa2 respectively) was used as a control. Control agonist activity was normalised to 100% and activity of neuropeptide analogues is expressed relative to that.

[2] = type: in vitro ADME, Drosophila melanogaster
Description: (§1) Enzyme digests were performed using aminopeptidase, endopeptidase, carboxypeptidase, or Drosophila melanogaster Malpighian tubule tissue extract. Peptide digests were performed in triplicate alongside ‘mock’ digests, where protease was substituted with water to determine peptide stability in aqueous media at 37° C. Several peptides were tested, including 1st generation AH56 and 3rs generation AH259. These are biostable in the presence of purified proteases for >24 hours; and for >3 hours to insect tissue extracts which are enriched for proteases.

[3] = test system: aminopeptidase, endopeptidase, carboxypeptidase; type: in vitro ADME
Description: as §1

Myzus persicae aphids = experiment: Topical application by spraying, Potter Spray Tower (Example 3); type: in vivo; settings: 48 hours post spray
M. persicae [4] = experiment: Feeding of aphids with peptides in artificial diet (Example 1); type: in vivo, Myzus persicae; settings: 10^−5 M
M. persicae [5] = experiment: Feeding of aphids with peptides in artificial diet (Example 2; peptide screening, honeydew); type: in vivo, Myzus persicae; settings: Peptide screening, Table 5
[6] = test system: Drosophila suzukii larvae; experiment: Drosophila suzukii larval feeding (Example 8; peptide screening); type: in vivo
[7] = target: T2, Drosophila melanogaster capa GPCR, capaR (Drosophila melanogaster, UniProt Q8ITC7 1-477); experiment: cell-based or functional assay
T2 sequence (looked up): T1 sequence (Q8ITC7 1-477)

[8] = Table 11, individual bees, peptide 1 × 10 − 5M or Spirotetramat 25 uM
[9] = Table 12, individual bees, 20% sucrose 0.1% ATPlus AH56
[10] = Table 12, 20% sucrose 0.1% ATPlus AH56

Molecule: CC(C)C[C@H](N=C(N(C)C)N(C)C)C(=O)N[C@H](C(=O)N[C@@H](C)C(=O)N[C@@H](Cc1ccccc1)C(=O)N1CCC[C@H]1C(=O)N[C@@H](CCCNC(=N)N)C(=O)N(C)[C@H](C(N)=O)C(C)C)C(C)C [AH257, Guanidyl-LVAFPR-(Me)V-NH2]
- lethal effect on bumblebees ([1]; 0.1% ATPlus): No lethal effect
- dead? ([1]; Table 10, individual bees, peptide ×10−5M or imidacloprid 28.3 uM in 50% sucrose, 0.1% ATPlus): 2
- safety towards B. terrestris in the bumblebee oral toxicity assay [1]: safe
- Est weight sucrose consumed post testing/day ([1]; individual bees, peptide ×10−5M or imidacloprid 28.3 uM in 50% sucrose, 0.1% ATPlus): 0.4789 grams/day and 0.0824 grams/day and 0.2612 grams/day and 0.3450 grams/day and 0.1265 grams/day and 0.4161 grams/day and 0.2912 grams/day and 0.3677 grams/day and 0.2298 grams/day and 0.3016 grams/day and 0.2869 grams/day
- Feeding impacted? (+ve feeding increased post pep, −ve feeding decreased post pep) ([1]; individual bees, post minus pre testing sucrose consumption): 0.0902 grams/day and −0.0881 grams/day and 0.0770 grams/day and 0.0006 grams/day and −0.0429 grams/day and −0.0008 grams/day and −0.0193 grams/day and 0.2039 grams/day and 0.0347 grams/day and 0.0995 grams/day and 0.0416 grams/day
- T-test outcome, sucrose consumed Pre vs Post ([1]; per treatment group): No sig effect
- CapaR Ca^2+ Agonist response (CapaR): 85%

Molecule: CC(C)C[C@H](N=C(N(C)C)N(C)C)C(=O)N(C)[C@H](C(=O)N[C@@H](C)C(=O)N[C@@H](Cc1ccccc1)C(=O)N1CCC[C@H]1C(=O)N[C@@H](CCCNC(=N)N)C(=O)N[C@H](C(N)=O)C(C)C)C(C)C [AH259, Guanidyl-L-(Me)V-AFPRV-NH2]
- lethal effect on bumblebees ([1]; 0.1% ATPlus): No lethal effect
- safety towards B. terrestris in the bumblebee oral toxicity assay [1]: safe
- CapaR Ca^2+ Agonist response (CapaR): 12%
- biostable to insect tissue extracts enriched for proteases [2]: > 3 h
- biostable in the presence of purified proteases [3]: > 24 h

Molecule: CC(C)C[C@H](NC(=O)CCCCCN)C(=O)N[C@H](C(=O)N(C)[C@@H](C)C(=O)N[C@@H](Cc1ccccc1)C(=O)N1CCC[C@H]1C(=O)N[C@@H](CCCNC(=N)N)C(=O)N(C)[C@H](C(N)=O)C(C)C)C(C)C [AH270, H-Ahx-LV-(Me)A-FPR-(Me)V-NH2]
- Liquid post exposure (weight), Mean ([1]; Table 11, group mean, n=10): 0.7794 g
- liquid consumed per day post exposure, Mean ([1]; Table 11, group mean, n=10): 0.1949 g
- Liquid post exposure (weight) [1, 8]: 0.9262 g and 0.7170 g and 1.8815 g and 0.8535 g and 0.6307 g and 0.4568 g and 0.3007 g and 0.5227 g and 1.1365 g and 0.3679 g
- days alive [1, 8]: 4 days
- liquid consumed per day post exposure [1, 8]: 0.2316 g and 0.1793 g and 0.4704 g and 0.2134 g and 0.1577 g and 0.1142 g and 0.0752 g and 0.1307 g and 0.2841 g and 0.0920 g
- safety towards B. terrestris in the bumblebee oral toxicity assay [1]: safe
- CapaR Ca^2+ Agonist response (CapaR): 85%

Molecule: H-Ahx-LVAFPRV-NH2 [AH56]
- lethal effect on bumblebees ([1]; 0.1% ATPlus): No lethal effect
- Volume remaining [1, 9]: 211 ul (2×) and 295 ul (2×) and 248 ul (2×) and 216 ul (2×) and 178 ul (2×)
- Volume removed [1, 9]: 289 and 205 and 252 and 284 and 322
- Volume remaining, group mean [1, 10]: 229.6 µL
- Volume removed, group mean [1, 10]: 270.4
- safety towards B. terrestris in the bumblebee oral toxicity assay [1]: safe
- Spray Aphid, % lethality in population after adjustment for baseline (Myzus persicae aphids; 10^−4 M): 41%
- Spray Aphid, % lethality in population after adjustment for baseline (Myzus persicae aphids; 10^−5 M): 35%
- Feeding Aphid, % lethality in population after adjustment for baseline (M. persicae [4]): 30%
- M. persicae (% Lethality) (M. persicae [5]): 30%
- Feeding D. suzukii, % lethality in population after adjustment for baseline ([6]; 10^−5 M, 48 hr exposure): 51%
- D. suzukii (Mean% Lethality ± SD) ([6]; Peptide screening, Table 5, blank control 20.33): 50.63%
- biostable to insect tissue extracts enriched for proteases [2]: > 3 h
- biostable in the presence of purified proteases [3]: > 24 h

B1: AH257 (Guanidyl-LVAFPR-(Me)V-NH2) (peptide)
peptide: Guanidyl-LVAFPR[NMeV]-NH2
SMILES: CC(C)C[C@H](NC(N(C)C)=[N+](C)C)C(=O)N[C@H](C(=O)N[C@@H](C)C(=O)N[C@@H](Cc1ccccc1)C(=O)N1CCC[C@H]1C(=O)N[C@@H](CCCNC(=N)N)C(=O)N(C)[C@H](C(N)=O)C(C)C)C(C)C
- CapaR Ca^2+ Agonist response at 10^-7 M [7]: 85 % of native Capa2 activity

B2: AH259 (Guanidyl-L-(Me)V-AFPRV-NH2) (peptide)
peptide: Guanidyl-L[NMeV]AFPRV-NH2
SMILES: CC(C)C[C@H](NC(N(C)C)=[N+](C)C)C(=O)N(C)[C@H](C(=O)N[C@@H](C)C(=O)N[C@@H](Cc1ccccc1)C(=O)N1CCC[C@H]1C(=O)N[C@@H](CCCNC(=N)N)C(=O)N[C@H](C(N)=O)C(C)C)C(C)C
- CapaR Ca^2+ Agonist response at 10^-7 M [7]: 12 % of native Capa2 activity

Source: patent publication US20240373849A1, “INSECT NEUROPEPTIDE ANALOGUES” (THE UNIVERSITY COURT OF THE UNIVERSITY OF GLASGOW, priority 2020, published 2024)
